From ChEMBL document CHEMBL1125446 (J Med Chem, 1992)
Positions of bridges follow the written chain, without caps; N, C: chain ends. Non-standard residues stand in square brackets, D forms with d. Residues, ends and D or L forms follow the SMILES beside them.

Experiments:
Endothelin-1 receptor [1] = target: T1, Endothelin-1 receptor (Sus scrofa, UniProt Q29010); experiment: Compound was evaluated for the binding affinity towards Endothelin A receptor in porcine aortic membranes; format: cell membranes
T1 sequence (Q29010 whole entry): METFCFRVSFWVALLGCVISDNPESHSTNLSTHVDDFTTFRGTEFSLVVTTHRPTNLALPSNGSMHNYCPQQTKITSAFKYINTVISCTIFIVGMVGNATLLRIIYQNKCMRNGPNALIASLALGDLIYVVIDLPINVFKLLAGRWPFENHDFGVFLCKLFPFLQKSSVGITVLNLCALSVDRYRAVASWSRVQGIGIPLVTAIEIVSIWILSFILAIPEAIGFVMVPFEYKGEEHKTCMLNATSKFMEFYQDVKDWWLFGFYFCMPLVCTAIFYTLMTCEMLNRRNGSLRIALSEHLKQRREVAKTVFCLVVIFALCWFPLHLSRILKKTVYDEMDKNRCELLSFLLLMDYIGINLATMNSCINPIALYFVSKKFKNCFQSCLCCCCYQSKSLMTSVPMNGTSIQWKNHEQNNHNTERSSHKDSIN

Endothelin-1 receptor [2] = target: T2, Endothelin-1 receptor (Rattus norvegicus, UniProt P26684); experiment: Compound was evaluated for the binding affinity to Endothelin A receptor in the rat atrium; format: tissue-based, Cardiac atrium
T2 sequence (P26684 whole entry): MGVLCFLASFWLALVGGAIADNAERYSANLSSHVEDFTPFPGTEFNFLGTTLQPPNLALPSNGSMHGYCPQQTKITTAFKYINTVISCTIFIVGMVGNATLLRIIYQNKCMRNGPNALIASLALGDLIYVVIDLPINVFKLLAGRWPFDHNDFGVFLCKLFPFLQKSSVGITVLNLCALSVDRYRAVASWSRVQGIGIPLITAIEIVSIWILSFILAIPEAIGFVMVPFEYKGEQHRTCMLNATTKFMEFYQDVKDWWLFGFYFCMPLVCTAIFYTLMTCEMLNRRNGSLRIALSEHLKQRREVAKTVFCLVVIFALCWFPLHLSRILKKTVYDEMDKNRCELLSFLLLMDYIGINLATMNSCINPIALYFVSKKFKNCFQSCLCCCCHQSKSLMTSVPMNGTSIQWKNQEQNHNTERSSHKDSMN

[3] = target: T3, Endothelin receptor type B (Rattus norvegicus, UniProt P21451); experiment: Compound was evaluated for the binding affinity to Endothelin B receptor in the rat hippocampus; format: tissue-based
T3 sequence (P21451 whole entry): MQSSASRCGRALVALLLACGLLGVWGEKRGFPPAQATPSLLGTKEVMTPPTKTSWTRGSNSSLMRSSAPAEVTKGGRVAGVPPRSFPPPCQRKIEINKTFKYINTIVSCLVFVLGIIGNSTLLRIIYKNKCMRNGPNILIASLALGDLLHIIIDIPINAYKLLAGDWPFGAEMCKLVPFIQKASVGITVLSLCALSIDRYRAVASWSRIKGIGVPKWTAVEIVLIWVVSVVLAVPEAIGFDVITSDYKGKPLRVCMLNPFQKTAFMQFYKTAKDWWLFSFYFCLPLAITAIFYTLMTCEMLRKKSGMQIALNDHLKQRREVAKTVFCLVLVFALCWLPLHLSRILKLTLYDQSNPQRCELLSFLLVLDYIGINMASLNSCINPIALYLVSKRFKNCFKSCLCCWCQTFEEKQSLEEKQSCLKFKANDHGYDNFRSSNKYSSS

[4] = target: T3, Endothelin receptor type B; experiment: Compound was evaluated for the binding affinity to Endothelin B receptor in the rat cerebellum; format: tissue-based
Endothelin-1 receptor [5] = target: T2, Endothelin-1 receptor; experiment: Compound was evaluated for the binding affinity to Endothelin A receptor in the rat aorta; format: tissue-based
[6] = target: T4, Endothelin receptor, ET-A/ET-B (Homo sapiens, UniProt P24530+P25101); experiment: Compound was evaluated for the Inhibition of the contractile response of Endothelin A receptor in rabbit thoracic aorta; format: functional, tissue-based, Oryctolagus cuniculus; details: target entry is the homologue from another species
T4 sequence (P24530 whole entry): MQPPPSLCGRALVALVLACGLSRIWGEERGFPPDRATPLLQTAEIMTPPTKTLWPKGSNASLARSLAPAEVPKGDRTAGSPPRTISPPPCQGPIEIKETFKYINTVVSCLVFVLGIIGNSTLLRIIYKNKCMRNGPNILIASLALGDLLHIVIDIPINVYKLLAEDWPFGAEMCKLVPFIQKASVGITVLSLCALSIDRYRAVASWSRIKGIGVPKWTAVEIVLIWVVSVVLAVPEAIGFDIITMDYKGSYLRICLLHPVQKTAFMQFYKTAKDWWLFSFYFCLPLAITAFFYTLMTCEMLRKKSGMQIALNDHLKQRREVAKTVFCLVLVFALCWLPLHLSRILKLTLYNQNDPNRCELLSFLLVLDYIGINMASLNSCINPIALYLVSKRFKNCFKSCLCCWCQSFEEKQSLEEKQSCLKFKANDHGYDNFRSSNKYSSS
T4 sequence (P25101 whole entry): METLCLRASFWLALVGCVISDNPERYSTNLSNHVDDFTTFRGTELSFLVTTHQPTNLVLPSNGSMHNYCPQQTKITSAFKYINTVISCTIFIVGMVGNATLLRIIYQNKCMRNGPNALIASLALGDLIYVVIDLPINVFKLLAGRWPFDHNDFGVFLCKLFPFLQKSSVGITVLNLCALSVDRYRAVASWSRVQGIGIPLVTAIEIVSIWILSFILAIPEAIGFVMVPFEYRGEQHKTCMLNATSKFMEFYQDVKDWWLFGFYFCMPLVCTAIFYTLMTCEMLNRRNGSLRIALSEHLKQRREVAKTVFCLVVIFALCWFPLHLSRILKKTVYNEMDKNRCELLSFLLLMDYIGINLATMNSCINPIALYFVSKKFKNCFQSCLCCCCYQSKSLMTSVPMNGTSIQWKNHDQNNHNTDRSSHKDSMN

Rattus norvegicus = species on record: Rattus norvegicus; experiment: Compound was evaluated for the Inositol phosphate accumulation in rat skin fibroblasts.; format: functional
Endothelin-1 receptor [7] = target: T1, Endothelin-1 receptor; experiment: Compound was evaluated for the binding affinity to Endothelin A receptor in the porcine aortic smooth muscle

Work on `CC(C)C[C@H](NC(=O)N1CCCCCC1)C(=O)N(C)[C@H](Cc1c[nH]c2ccccc12)C(=O)N[C@H](Cc1ccccn1)C(=O)N(C)CC(=O)O` yielded an IC50 (Endothelin-1 receptor [1]) of 7600 nM.
`CNC(=O)[C@H](Cc1ccccn1)NC(=O)[C@@H](Cc1c[nH]c2ccccc12)N(C)C(=O)[C@@H](CC(=O)N1CCCCCC1)CC(C)C` gave an IC50 (Endothelin-1 receptor [1]) of 7600 nM.
Work on `CC(C)C[C@H](NC(=O)N1CCCCCC1)C(=O)N(C)[C@H](Cc1c[nH]c2ccccc12)C(=O)N[C@H](Cc1ccccn1)C(=O)N[C@@H](Cc1ccccc1)C(=O)O` yielded an IC50 (Endothelin-1 receptor [1]) of 21000 nM.
Work on `CC(C)C[C@H](NC(=O)N1CCCCCC1)C(=O)N(C)[C@H](Cc1c[nH]c2ccccc12)C(=O)N[C@H](Cc1ccccn1)C(=O)O` yielded an IC50 (Endothelin-1 receptor [1]) of 2500 nM.
Work on `CC(C)C[C@H](NC(=O)Cc1ccccc1Cl)C(=O)N(C)[C@H](Cc1c[nH]c2ccccc12)C(=O)N[C@H](CC(C)C)C(=O)O` yielded an IC50 (Endothelin-1 receptor [1]) of 32000 nM.
In the case of `CC[C@H](C)[C@H](NC(=O)[C@@H](NC(=O)[C@H](CC(=O)O)NC(=O)[C@H](CCC(N)=O)NC(=O)[C@H](Cc1cnc[nH]1)NC(=O)[C@@H]1CSSC[C@H](N)C(=O)N[C@@H]([C@@H](C)O)C(=O)N[C@H]2CSSC[C@H](NC(=O)[C@H](CCC(=O)O)NC(=O)[C@H](CCC(=O)O)NC(=O)[C@H](CC(=O)O)NC(=O)[C@H]([C@@H](C)O)NC(=O)[C@H](CCSC)NC(=O)[C@H](CC(=O)O)NC(=O)[C@H](CC(N)=O)NC2=O)C(=O)N[C@@H](CC(C)C)C(=O)N[C@@H](CC(N)=O)C(=O)N[C@@H](Cc2ccccc2)C(=O)N1)C(C)C)C(=O)N[C@@H](Cc1c[nH]c2ccccc12)C(=O)O`, the Ki (Endothelin-1 receptor [2]) is reported as 4200 nM, the Ki [3] is reported as 0.023 nM and the Ki [4] is reported as 0.016 nM. The Ki (Endothelin-1 receptor [5]) was > 5000 nM.
With `CC(C)C[C@H](NC(=O)C1CCCCC1)C(=O)N(C)[C@H](Cc1c[nH]c2ccccc12)C(=O)N[C@H](Cc1ccccn1)C(=O)O.Cl` the IC50 [6] was 230000 nM and the IC50 (Endothelin-1 receptor [1]) was 2300 nM.
`CC[C@@H](C)[C@@H](NC(=O)[C@@H](NC(=O)[C@H](CC(=O)O)NC(=O)[C@H](CC(C)C)NC(=O)[C@H](Cc1c[nH]cn1)NC(C)=O)[C@@H](C)CC)C(=O)N[C@@H](Cc1c[nH]c2ccccc12)C(=O)O` (Ac-HLDI[dI]W-OH) was tested, and the IC50 (Rattus norvegicus) was < 50000 nM.
Work on `CC[C@H](C)[C@H](NC(=O)[C@H](CC(=O)O)NC(=O)[C@H](CC(C)C)NC(=O)[C@@H](Cc1c[nH]cn1)NC(C)=O)C(=O)N[C@H](C(=O)N[C@@H](Cc1c[nH]c2ccccc12)C(=O)O)[C@@H](C)CC` (Ac-[dH]LDIIW-OH) yielded an IC50 (Rattus norvegicus) of 1400 nM.
Compound `CC[C@H](C)[C@H](NC(=O)[C@@H](NC(=O)[C@H](CC(=O)O)NC(=O)[C@H](CCC(N)=O)NC(=O)[C@H](Cc1cnc[nH]1)NC(=O)[C@@H]1CSSC[C@H](N)C(=O)N[C@@H](CO)C(=O)N[C@H]2CSSC[C@H](NC(=O)[C@H](CCC(=O)O)NC(=O)[C@H](CCCCN)NC(=O)[C@H](CC(=O)O)NC(=O)[C@H]([C@@H](C)O)NC(=O)[C@H](CCSC)NC(=O)[C@H](CC(=O)O)NC(=O)[C@H](CCCCN)NC2=O)C(=O)N[C@@H](CC(C)C)C(=O)N[C@@H](Cc2ccc(O)cc2)C(=O)N[C@@H](Cc2ccccc2)C(=O)N1)C(C)C)C(=O)N[C@@H](Cc1c[nH]c2ccccc12)C(=O)O` (H-CSCKDMTDKECLYFCHQDVIW-OH; disulfide 1-15, 3-11) has a Ki (Endothelin-1 receptor [2]) of 0.087 nM, a Ki [3] of 0.012 nM and a Ki [4] of 0.013 nM. It also gave a Ki (Endothelin-1 receptor [5]) of 0.24 nM.
`CC(C)C[C@@H]1NC(=O)[C@@H](C(C)C)NC(=O)[C@H](C)NC(=O)[C@@H](CCC(=O)O)NC(=O)[C@@H](Cc2c[nH]c3ccccc23)NC1=O` (single isomer, unassigned) showed an IC50 (Endothelin-1 receptor [7]) of 1400 nM.
`CC(C)C[C@@H]1NC(=O)[C@@H](C(C)C)NC(=O)[C@@H]2CCCN2C(=O)[C@@H](CC(=O)O)NC(=O)[C@@H](Cc2c[nH]c3ccccc23)NC1=O` [BQ-123] (cyclo(L[dW][dD]P[dV])) gave an IC50 (Endothelin-1 receptor [7]) of 22000 nM.
`CC[C@H](C)[C@H](NC(=O)[C@H](CC(=O)O)NC(=O)[C@H](CC(C)C)NC(=O)[C@H](Cc1c[nH]cn1)NC(=O)[C@@H]1CSSC[C@H](N)C(=O)N[C@@H]([C@@H](C)O)C(=O)N[C@H]2CSSC[C@H](NC(=O)[C@H](CCC(=O)O)NC(=O)[C@H](CCCCN)NC(=O)[C@H](CC(=O)O)NC(=O)[C@H](CCCCN)NC(=O)[C@H](Cc3ccc(O)cc3)NC(=O)[C@H]([C@@H](C)O)NC(=O)[C@H](Cc3ccccc3)NC2=O)C(=O)N[C@@H](C(C)C)C(=O)N[C@@H](Cc2ccc(O)cc2)C(=O)N[C@@H](Cc2ccc(O)cc2)C(=O)N1)C(=O)N[C@H](C(=O)N[C@@H](Cc1c[nH]c2ccccc12)C(=O)O)[C@@H](C)CC` [ENDOTHELIN 3] was tested, and the Ki (Endothelin-1 receptor [2]) was 1.6 nM, the Ki [3] was 0.036 nM and the Ki [4] was 0.021 nM. The Ki (Endothelin-1 receptor [5]) was 2.5 nM.
Ac-HLDIIW-OH was tested, and the IC50 (Rattus norvegicus) was < 50000 nM.
With H-HLDIIW-OH the IC50 (Rattus norvegicus) was < 50000 nM.
